Experiments:
[1] = system: pyramidal neurons in layer II/III of ACC slices; assay: LTP induced by pairing training, whole-cell patch-clamp recordings in ACC slices; type: cell-based, mouse
Protocol: Experiments were performed in a recording chamber on the stage of an Axioskop 2FS microscope with infrared DIC optics for visualizing whole-cell patch clamp recordings. EPSCs were recorded from layer II-III neurons using an Axon 200B amplifier (Axon Instruments, CA) and stimulations were delivered using a bipolar tungsten stimulating electrode placed in layer V of the ACC. In hippocampal slices, EPSCs were evoked by stimulating the Schaffer collateral-commissural pathway. EPSCs were induced by repetitive stimulations at 0.02 Hz and neurons were voltage clamped at −70 mV. […] The first protocol involved paired presynaptic 80 pulses at 2 Hz with postsynaptic depolarization at +30 mV (referred to as pairing training). The second involved paired 3 presynaptic stimuli that caused 3 EPSPs (10 ms ahead) with 3 postsynaptic APs at 30 Hz, paired 15 times every 5 s (named as EPSPs-APs protocol). The third involved theta-burst stimulation (5 trains of burst with 4 pulses at 100 Hz, at 200 ms interval; repeated 4 times at intervals of 10 s; named as TBS). The NMDAR-mediated component of EPSCs was pharmacologically isolated in Mg^2+-free ACSF containing: CNQX (20 μM), glycine (1 μM) and picrotoxin (100 μM). […] Neurons were voltage clamped at −60 mV and NMDARs-mediated EPSCs were evoked at 0.05 Hz. Picrotoxin (100 μM) was always present to block GABAA receptor-mediated inhibitory synaptic currents. The access resistance was 15-30 MΩ and was monitored throughout the experiment. […] Results are expressed as means±SEM. Statistical comparisons were performed using the Student t-test.
Whole-cell patch-clamp recordings were conducted in visually identified pyramidal neurons in layer II/III of ACC slices. Pyramidal neurons were identified by injecting depolarized currents into neurons to induce action potentials. […] Pyramidal neurons were also identified based on the pyramid shape of their somata by putting Lucifer yellow into the intracellular solution (FIG. 1A).

[2] = system: NMDAR-mediated signaling; settings: intra-hippocampal injections; cited from earlier work
[3] = system: NR1/NR2B; settings: cited from earlier work
[4] = system: NMDAR-mediated currents in the ACC; assay: NMDAR-mediated EPSCs in the ACC; type: cell-based, mouse
Protocol: (§1) Coronal brain slices ([…]) from 6-8-week-old C57BL/6 mice, containing ACC or hippocampus, were prepared using standard methods (Wei et al., 2001). Slices were transferred to a submerged recovery chamber containing oxygenated (95% O2 and 5% CO2) artificial cerebrospinal fluid (ACSF) (in mM: 124 NaCl, 4.4 KCl, 2 CaCl2, 1 MgSO4, 25 NaHCO3, 1 NaH2PO4, 10 glucose) at room temperature for at least 1 h.
(§2) Experiments were performed in a recording chamber on the stage of an Axioskop 2FS microscope with infrared DIC optics for visualizing whole-cell patch clamp recordings. EPSCs were recorded from layer II-III neurons using an Axon 200B amplifier (Axon Instruments, CA) and stimulations were delivered using a bipolar tungsten stimulating electrode placed in layer V of the ACC. In hippocampal slices, EPSCs were evoked by stimulating the Schaffer collateral-commissural pathway. EPSCs were induced by repetitive stimulations at 0.02 Hz and neurons were voltage clamped at −70 mV. The recording pipettes (3-5 MΩ) were filled with solution containing (mM) 145 K-gluconate, 5 NaCl, 1 MgCl2, 0.2 EGTA, 10 HEPES, 2 Mg-ATP, and 0.1 Na3-GTP (adjusted to pH 7.2 with KOH). After obtaining stable EPSCs for 10 min, three kinds of LTP induction paradigms were used within 12 min after establishing the whole-cell configuration to prevent wash out effect on LTP induction (Tsvetkov et al., 2002). The first protocol involved paired presynaptic 80 pulses at 2 Hz with postsynaptic depolarization at +30 mV (referred to as pairing training). The second involved paired 3 presynaptic stimuli that caused 3 EPSPs (10 ms ahead) with 3 postsynaptic APs at 30 Hz, paired 15 times every 5 s (named as EPSPs-APs protocol). The third involved theta-burst stimulation (5 trains of burst with 4 pulses at 100 Hz, at 200 ms interval; repeated 4 times at intervals of 10 s; named as TBS). The NMDAR-mediated component of EPSCs was pharmacologically isolated in Mg^2+-free ACSF containing: CNQX (20 μM), glycine (1 μM) and picrotoxin (100 μM). The patch electrodes contained (in mM) 102 cesium gluconate, 5 TEA-chloride, 3.7 NaCl, 11 BAPTA, 0.2 EGTA, 20 HEPES, 2 MgATP, 0.3 NaGTP, and 5 QX-314 chloride (adjusted to pH 7.2 with CsOH). Neurons were voltage clamped at −60 mV and NMDARs-mediated EPSCs were evoked at 0.05 Hz. Picrotoxin (100 μM) was always present to block GABAA receptor-mediated inhibitory synaptic currents. The access resistance was 15-30 MΩ and was monitored throughout the experiment. Data were discarded if access resistance changed by more than 15% during an experiment. Results are expressed as means±SEM. Statistical comparisons were performed using the Student t-test.
(§3) One possible mechanism is that NR2B-containing receptors may contribute more to total NMDA currents in ACC synapses than in hippocampal synapses. […] Application of 0.1 μM or 0.4 μM NVP-AAM077 depressed total NMDAR-mediated currents by 59.0±4.3% (n=5) and 63.2±1.7% (n=6) in the ACC respectively (FIG. 5). On the other hand, application of 0.3 μM or 3 μM Ro25-6981 attenuated total NMDAR-mediated currents by 18.0±1.9% (n=5) and 18.1±3.4% (n=7) in the ACC respectively, showing that 0.3 μM Ro25-6981 was sufficient to block the NR2B-mediated currents (FIG. 5). This experiment was repeated in hippocampal CA1 neurons. […] However, unlike in the ACC, application of 0.3 μM Ro25-6981 alone potentiated, rather than blocked, total NMDAR-mediated currents by 51.3±16.4% in the hippocampus (FIG. 5).
The relative percentages of NR2A- and NR2B-mediated currents were determined by applying specific antagonists, NVP-AAM077 (0.4 μM) and Ro25-6981 (0.3 μM). The concentrations used here were based on the results from FIG. 5 and a recent study performed in the hippocampus (Liu et al., 2004). Application of NVP-AAMO77 depressed total NMDAR-mediated currents by 63.2±1.7% and the addition of Ro25-6981 to the same neuron further reduced currents by 13.7±1.4% (n=6) in the ACC (FIG. 6). […]

[5] = system: adult ACC neurons; assay: LTP induced by EPSPs-APs protocol in ACC slices; type: cell-based, mouse; settings: 0.4 μM
Protocol: as §1
as §2, with “t-test. […]” for “t-test.”

[6] = system: adult ACC neurons; assay: LTP induced by theta-burst stimulation (TBS) in ACC slices; type: cell-based, mouse; settings: 0.4 μM
Protocol: as §1
as §2, with “t-test. […]” for “t-test.”

[7] = system: NR1/NR2A; settings: cited from earlier work
[8] = system: NMDAR-mediated currents in the hippocampus; assay: NMDAR-mediated EPSCs in hippocampal CA1 neurons; type: cell-based, mouse; settings: for depression of total NMDAR-mediated currents: hippocampal CA1 neurons
Protocol: as §1, §2, §3
The same experiment was repeated in the hippocampus.

[9] = FIG. 1E/F, BAPTA in the intracellular solution

## NC(CCCP(=O)(O)O)C(=O)O (centres unmarked) [AP-5]
[1]; AP-5 50 μM
  synaptic responses after pairing training (LTP), % of baseline: 97.8±5.7%
[1]; [9]
  effect on LTP induced by pairing training: completely blocked

## O=C(O)CN(CC(=O)O)c1ccccc1OCCOc1ccccc1N(CC(=O)O)CC(=O)O [BAPTA]
[1]; 11 mM BAPTA in the pipette solution
  synaptic responses after pairing training (LTP), % of baseline: 106.1±10.3%
[1]; [9]
  effect on LTP induced by pairing training: completely blocked

## C[C@]12N[C@H](Cc3ccccc31)c1ccccc12 [MK-801]
[2]
  contextual freezing: reduced contextual freezing

## C[C@H](NC(c1cccc2[nH]c(=O)c(=O)[nH]c12)P(=O)(O)O)c1ccc(Br)cc1 (some centres unmarked) [NVP-AAM077]
[3]
  IC50: 1800 nM
[4]; 0.1 μM
  depression of total NMDAR-mediated currents: 59.0±4.3%
[4]; 0.4 μM NVP-AAM077 added after first applying 0.3 μM Ro25-6981
  depression of total NMDAR-mediated currents: 64.2±3.0%
[4]; 0.4 μM, applied alone or first
  depression of total NMDAR-mediated currents: 63.2±1.7%
[4]; bath application of different doses, FIG. 5
  effect on total NMDAR-mediated currents: depressed
[5]
  potentiation after EPSPs-APs protocol, % of baseline: 102.0±11.5%
[5]; FIG. 4C
  effect on LTP induced by EPSPs-APs protocol: blocked
[6]
  LTP after TBS, % of baseline: 97.0±13.4%
[6]; FIG. 4F
  effect on LTP induced by TBS: blocked
[1]; 0.1 μM
  synaptic responses after pairing training (LTP), % of baseline: 134.9±6.9%
[1]; 0.1 μM, FIG. 3
  effect on LTP induced by pairing training: partially depressed
[1]; 0.4 μM
  synaptic responses after pairing training (LTP), % of baseline: 131.6±11.9%
[1]; 0.4 μM, FIG. 3
  effect on LTP induced by pairing training: partially depressed
[7]
  IC50: 14 nM
[8]; 0.1 μM
  depression of total NMDAR-mediated currents: 54.4±3.2%
[8]; 0.4 μM
  depression of total NMDAR-mediated currents: 73.1±1.7%
[8]; hippocampus, bath application, FIG. 5
  effect on total NMDAR-mediated currents: depressed

## CC(C(O)c1ccc(O)cc1)N1CCC(Cc2ccccc2)CC1 (centres unmarked) [ifenprodil]
[3]
  IC50: 340 nM
[1]; 3 μM
  synaptic responses after pairing training (LTP), % of baseline: 128.1±7.4%
[1]; 3 μM, FIG. 3
  effect on LTP induced by pairing training: partially depressed
[7]
  IC50: 146000 nM

From patent US20070161592A1, “Method of treating fear” (priority 2005, published 2007)
